Literature values, collected in patent US12435094B1, “Methods of preparing isomers, analogs, and synthetic derivatives from akuamma seeds” (priority 2024, dated 2025).

Assays:
[1] = system: animal models of antinociception; conditions: background statement, no data shown
mu opioid receptor (μOR) = mu opioid receptor (μOR) (Homo sapiens, UniProt P35372); conditions: background statement, no data shown
mu opioid receptor (μOR), sequence (P35372 whole entry, species assumed): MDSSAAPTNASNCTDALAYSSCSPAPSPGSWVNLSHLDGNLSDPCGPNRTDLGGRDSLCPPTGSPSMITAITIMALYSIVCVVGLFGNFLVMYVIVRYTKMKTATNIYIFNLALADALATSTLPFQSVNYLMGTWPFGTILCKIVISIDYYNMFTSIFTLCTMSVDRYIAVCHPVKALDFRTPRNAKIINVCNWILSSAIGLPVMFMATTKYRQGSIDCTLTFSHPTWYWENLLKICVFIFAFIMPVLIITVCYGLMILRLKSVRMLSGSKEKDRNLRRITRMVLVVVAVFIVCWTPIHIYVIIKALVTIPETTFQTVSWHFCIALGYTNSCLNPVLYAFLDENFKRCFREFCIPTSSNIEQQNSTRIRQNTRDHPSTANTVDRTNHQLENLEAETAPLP

Row | Compound | effects in animal models of antinociception [1] | agonism of the mu opioid receptor (μOR) (mu opioid receptor (μOR))
1 | C/C=C1/CN2CC[C@@]34c5ccccc5N(C)[C@]35OCC4(C(=O)OC)[C@@H]1C[C@H]25 [pseudoakuammigine, Pseudoakuammigine] | minimal effects | weak agonists
2 | Akuammine | minimal effects | weak agonists
